Measured values reported in publication PMC7321065, “Discovery of New Schiff Bases Tethered Pyrazole Moiety: Design, Synthesis, Biological Evaluation, and Molecular Docking Study as Dual Targeting DHFR/DNA Gyrase Inhibitors with Immunomodulatory Activity” (Molecules, 2020).
In brackets after ≈: the same amount, converted by molar mass. Like-named read-outs stand apart in the source and are kept apart here.

How the values were obtained:
Candida albicans [1] = assay: Inhibition zone, agar plate diffusion; format: cell-based; details: read-out: Inhibition zone (IZ)
Experimental: (§1) Antimicrobial activities of the newly formed Schiff bases (6a–d, 7a–d, 8a–d, and 9a–d) and reference drugs were evaluated against three Gram-positive, three Gram-negative, and two fungi strain at Al-Azhar University, Cairo, Egypt. The inhibition zones (IZ, in mm ± standard deviation) and the minimal inhibitory concentration (MIC) (μg/mL) were determined by the conventional paper disk diffusion method.
(§2) In Vitro Antimicrobial Activities
(§3) The antimicrobial activities inhibition zone (IZ, mm±standard deviation) of pyrazole Schiff bases ( 6a-d , 7a-d, 8a-d and 9a-d ) was measurement according to the agar plate diffusion method. Briefly, 100 µl of the […]
(§4) […] of each sample (at 0.5 mg/mL) was added to each well (10 mm diameter holes cut in the agar gel). The plates were incubated for 24 h at 37 °C (for bacteria and yeast) and for 72 h at 27 °C (for filamentous fungi), each test was repeated three times. After incubation, the microorganism's growth was observed. […]
(§5) drugs while Amphotericin B was used as standard antifungal drug. The resulting inhibition zone diameters were measured in millimeters and used as criterion for the antimicrobial activity. Solvent controls (DMSO) were included in every experiment as negative controls. DMSO was used for dissolving […]
(§6) the tested microorganisms. […]
(§7) Bacteria were grown on nutrient agar medium, while fungi and yeast were grown on Sabouraud agar medium. […]

Fusarium oxysporum [2] = assay: Inhibition zone, agar plate diffusion; format: cell-based; details: read-out: Inhibition zone (IZ)
Experimental: as §1, §2, §3, §4, §5, §6, §7

Salmonella typhi [3] = assay: Inhibition zone, agar plate diffusion; format: cell-based; details: Salmonella enterica, St, mm ± standard deviation, sample at 0.5 mg/mL, read-out: Inhibition zone (IZ)
Experimental: as §1, §2, §3, §4, §5, §6, §7

Staphylococcus aureus [4] = assay: Inhibition zone, agar plate diffusion; format: cell-based; details: read-out: Inhibition zone (IZ)
Experimental: as §1, §2, §3, §4, §5, §6, §7

Escherichia coli [5] = assay: Inhibition zone, agar plate diffusion; format: cell-based; details: read-out: Inhibition zone (IZ)
Experimental: as §1, §2, §3, §4, §5, §6

Pseudomonas aeruginosa [6] = assay: Inhibition zone, agar plate diffusion; format: cell-based; details: read-out: Inhibition zone (IZ)
Experimental: as §1, §2, §3, §4, §5, §6

Bacillus subtilis [7] = assay: Inhibition zone, agar plate diffusion; format: cell-based; details: read-out: Inhibition zone (IZ)
Experimental: as §1, §2, §3, §4, §5, §6

Enterococcus faecalis [8] = assay: Inhibition zone, agar plate diffusion; format: cell-based; details: read-out: Inhibition zone (IZ)
Experimental: as §1, §2, §3, §4, §5, §6

S. aureus ATCC 33591 [9] = assay: Inhibition zone against MDRB, agar plate diffusion; format: cell-based
E. coli ATCC BAA-196 [10] = assay: Inhibition zone against MDRB, agar plate diffusion; format: cell-based
S. aureus ATCC 33591 [11] = assay: MIC/MBC against MDRB, paper disk diffusion; format: cell-based; details: Staphylococcus aureus, ATCC33591
Excerpt: (§8) The inhibition zone (IZ, mm±standard deviation) of pyrazole Schiff bases ( 6b, 7b, 7c, 8a, 8d and 9b) was
(§9) measurement according to the agar plate diffusion method against a panel of multidrug-resistant bacteria
(MDRB). […]

E. coli ATCC BAA-196 [12] = assay: MIC/MBC against MDRB, paper disk diffusion; format: cell-based; details: Escherichia coli, ATCCBAA196
Excerpt: as §8, §9
(MDRB). […]

[13] = test system: S. aureus ATCC 43300 (MRSA); assay: MIC/MBC against MDRB, paper disk diffusion; format: cell-based; details: Staphylococcus aureus
Excerpt: as §8, §9
(MDRB). […]

[14] = test system: P. aeruginosa ATCC BAA-2111; assay: MIC/MBC against MDRB, paper disk diffusion; format: cell-based; details: Pseudomonas aeruginosa, ATCCBAA2111
Excerpt: as §8, §9
(MDRB). […]

[15] = test system: S. aureus ATCC 43300 (MRSA); assay: Inhibition zone against MDRB, agar plate diffusion; format: cell-based
Candida albicans [16] = assay: MIC/MFC, paper disk diffusion; format: cell-based; details: Candida albicans
Experimental: as §1
(§10) In Vitro Antimicrobial Activities […]
(§11) DMSO was used for dissolving […]
(§12) the tested microorganisms.
(§13) The minimum inhibitory concentration (MIC), the minimum bactericidal concentration (MBC, µg/ml) and […]
(§14) and 9b) were determined by the conventional technique termed paper disk diffusion, by applying paper […]
(§15) Bacteria were grown on nutrient agar medium, while fungi and yeast were grown on Sabouraud agar medium. The purified streptomycin was dissolved in […]
(§16) inoculated with test organism. Growth inhibition was examined after 24 hr. from incubation at 37 °C for bacteria and after 72 hr. incubation at 27 °C for fungi and yeast. Each test was repeated three times. MIC was expressed as the lowest concentration inhibiting test organism’s growth. […]

Fusarium oxysporum [17] = assay: MIC/MFC, paper disk diffusion; format: cell-based; details: Fusarium oxysporum
Experimental: as §1, §10, §11, §12, §13, §14, §15, §16

Escherichia coli [18] = assay: MIC/MBC, paper disk diffusion; format: cell-based; details: Escherichia coli
Experimental: as §1, §10, §11, §12, §13, §14, §15, §16

Salmonella typhi [19] = assay: MIC/MBC, paper disk diffusion; format: cell-based; details: Salmonella enterica, S. typhi
Experimental: as §1, §10, §11, §12, §13, §14, §15, §16

Pseudomonas aeruginosa [20] = assay: MIC/MBC, paper disk diffusion; format: cell-based; details: for MBC: P. aeruginosa
Experimental: as §1, §10, §11, §12, §13, §14, §15, §16

Bacillus subtilis [21] = assay: MIC/MBC, paper disk diffusion; format: cell-based
Experimental: as §1, §10, §11, §12, §13, §14, §15, §16

Staphylococcus aureus [22] = assay: MIC/MBC, paper disk diffusion; format: cell-based; details: Staphylococcus aureus
Experimental: as §1, §10, §11, §12, §13, §14, §15, §16

Enterococcus faecalis [23] = assay: MIC/MBC, paper disk diffusion; format: cell-based
Experimental: as §1, §10, §11, §12, §13, §14, §15, §16

Vero cells (ATCC CCL-81) = assay: Cytotoxicity on normal cells, MTT assay; format: cell-based, African green monkey; details: healthy non-cancer cells
Experimental: (§17) 3-[4, 5-Dimethyl-2-thiazolyl)-2, 5-diphenyl-2 H-tetrazolium bromide (MTT) protocol is based on the cleavage of the tetrazolium salt by mitochondrial dehydrogenases in viable cells. Cells were dispensed in a 96 well sterile microplate (5 x 10^4 cells/well), and incubated at 37 °C with series of different concentrations, in DMSO, of each tested compound or Doxorubicin ® (positive control) for 48 h in a serum free medium prior to the MTT assay. After incubation, media were carefully removed, 40 µL of MTT (2.5 mg/mL) were added to each well and then incubated for an additional 4 h. The purple formazan dye crystals were solubilized by the addition of 200 µL of DMSO. The absorbance was measured at 590 nm using a SpectraMax® Paradigm® Multi-Mode microplate reader. The relative cell viability was expressed as the mean percentage of viable cells compared to the untreated control cells.
(§18) All experiments were conducted in triplicate and repeated in three different days. All the values were represented as mean ± SD. IC 50s were determined by probit analysis using SPSS software program (SPSS

[24] = test system: P. aeruginosa ATCC BAA-2111; assay: Inhibition zone against MDRB, agar plate diffusion; format: cell-based
[25] = test system: hepatocellular carcinoma cell line (HepG2); assay: Antiproliferative activity, MTT assay; format: cell-based, human; details: Homo sapiens, HepG2, 48 h, read-out: IC50 HepG-2
Experimental: as §17, §18

[26] = test system: mammary gland breast cancer cell line (MCF-7); assay: Antiproliferative activity, MTT assay; format: cell-based, human; details: Homo sapiens, MCF7, 48 h, read-out: IC50 MCF-7
Experimental: as §17, §18

[27] = Ca, mm ± standard deviation, sample at 0.5 mg/mL
[28] = Fo, mm ± standard deviation, sample at 0.5 mg/mL
[29] = Sa, mm ± standard deviation, sample at 0.5 mg/mL
[30] = Ec, mm ± standard deviation, sample at 0.5 mg/mL
[31] = Pa, mm ± standard deviation, sample at 0.5 mg/mL
[32] = Bs, mm ± standard deviation, sample at 0.5 mg/mL
[33] = Ef, mm ± standard deviation, sample at 0.5 mg/mL

COc1ccc(Nc2n[nH]c(N=Cc3c(C)nn(-c4ccccc4)c3Cl)c2C(N)=O)cc1 [7a, 5-((5-Chloro-3-methyl-1-phenyl-1H-pyrazol-4-yl)methyleneamino)-3-(p-methoxyphenylamino)-1H-pyrazole-4-carboxamide]
melting point: 270 to 272 °C
zone of inhibition at 500 µg/mL (Candida albicans [1]; [27]): 13 ± 0.35 mm
zone of inhibition at 500 µg/mL (Fusarium oxysporum [2]; [28]): 15 ± 0.3 mm
zone of inhibition at 500 µg/mL (Salmonella typhi [3]): 18 ± 0.16 mm
zone of inhibition at 500 µg/mL (Staphylococcus aureus [4]; [29]): 19 ± 0.31 mm
zone of inhibition at 500 µg/mL (Escherichia coli [5]; [30]): 18 ± 0.2 mm
zone of inhibition at 500 µg/mL (Pseudomonas aeruginosa [6]; [31]): 20 ± 0.15 mm
zone of inhibition at 500 µg/mL (Bacillus subtilis [7]; [32]): 20 ± 0.4 mm
zone of inhibition at 500 µg/mL (Enterococcus faecalis [8]; [33]): 21 ± 0.11 mm

COc1ccc(Nc2n[nH]c(N=Cc3c(C)nn(-c4ccccc4)c3Cl)c2C(=O)Nc2ccc(C)cc2)cc1 [7c, 5-((5-Chloro-3-methyl-1-phenyl-1H-pyrazol-4-yl)methyleneamino)-3-(p-methoxyphenylamino)-N-p-tolyl-1H-pyrazole-4-carboxamide]
Mean Diameter of Inhibition Zone against MDRB (S. aureus ATCC 33591 [9]): 21 ± 0.19 mm
Mean Diameter of Inhibition Zone against MDRB (E. coli ATCC BAA-196 [10]): 21 ± 0.3 mm
MBC (S. aureus ATCC 33591 [11]): 11.1 µg/mL (≈ 20.6 µM)
MIC (S. aureus ATCC 33591 [11]): 5.55 µg/mL (≈ 10.3 µM)
MBC (E. coli ATCC BAA-196 [12]): 14.8 µg/mL (≈ 27.5 µM)
MIC (E. coli ATCC BAA-196 [12]): 7.81 µg/mL (≈ 14.5 µM)
MBC [13]: 14.8 µg/mL (≈ 27.5 µM)
MIC [13]: 7.81 µg/mL (≈ 14.5 µM)
MBC [14]: 6.66 µg/mL (≈ 12.3 µM)
MIC [14]: 4.44 µg/mL (≈ 8.22 µM)
Mean Diameter of Inhibition Zone against MDRB [15]: 17 ± 0.37 mm
zone of inhibition at 500 µg/mL (Candida albicans [1]): 27 ± 0.5 mm
zone of inhibition at 500 µg/mL (Fusarium oxysporum [2]): 22 ± 0.11 mm
zone of inhibition at 500 µg/mL (Salmonella typhi [3]): 29 ± 0.2 mm
zone of inhibition at 500 µg/mL (Staphylococcus aureus [4]): 33 ± 0.53 mm
MFC (Candida albicans [16]): 41.6 µg/mL (≈ 77.1 µM)
MIC (Candida albicans [16]): 31.2 µg/mL (≈ 57.9 µM)
MFC (Fusarium oxysporum [17]): 87.5 µg/mL (≈ 162 µM)
MIC (Fusarium oxysporum [17]): 55.5 µg/mL (≈ 103 µM)
MIC (Escherichia coli [18]): 18.5 µg/mL (≈ 34.3 µM)
MIC (Salmonella typhi [19]): 31.2 µg/mL (≈ 57.9 µM)
MBC (Salmonella typhi [19]; read-out: MBC): 56.2 µg/mL (≈ 104 µM)
MBC (Pseudomonas aeruginosa [20]): 88.8 µg/mL (≈ 164 µM)
MIC (Pseudomonas aeruginosa [20]; Pseudomonas aeruginosa): 55.5 µg/mL (≈ 103 µM)
MBC (Pseudomonas aeruginosa [20]; Pseudomonas aeruginosa): 59.4 µg/mL (≈ 110 µM)
Fold more potent than Tetracycline (MIC) (Bacillus subtilis [21]; B. subtilis): 3 fold
MBC (Bacillus subtilis [21]; B. subtilis): 18.5 µg/mL (≈ 34.3 µM)
MIC (Bacillus subtilis [21]; Bacillus subtilis): 9.25 µg/mL (≈ 17.1 µM)
MBC (Bacillus subtilis [21]; Bacillus subtilis, B. subtilis): 10.6 µg/mL (≈ 19.6 µM)
MIC (Staphylococcus aureus [22]): 31.2 µg/mL (≈ 57.9 µM)
MIC (Enterococcus faecalis [23]): 7.81 µg/mL (≈ 14.5 µM)
IC50 (Vero cells (ATCC CCL-81); Chlorocebus sabaeus, Vero, read-out: IC50 Vero, MTT): > 120 µM
IC50 (Vero cells (ATCC CCL-81); read-out: IC50 Vero, MTT): 213.5 ± 0.57 µM
zone of inhibition at 500 µg/mL (Escherichia coli [5]): 30 ± 0.29 mm
zone of inhibition at 500 µg/mL (Pseudomonas aeruginosa [6]): 27 ± 0.73 mm
zone of inhibition at 500 µg/mL (Bacillus subtilis [7]): 32 ± 0.22 mm
zone of inhibition at 500 µg/mL (Enterococcus faecalis [8]): 29 ± 0.17 mm
Mean Diameter of Inhibition Zone against MDRB [24]: 22 ± 0.5 mm
IC50 [25]: 1.22 ± 0.23 µM
IC50 [26]: 3.24 ± 0.41 µM

COc1ccc(Nc2n[nH]c(N=Cc3c(C)n(C)n(-c4ccccc4)c3=O)c2C(N)=O)cc1 [6a, 5-((1,5-Dimethyl-3-oxo-2-phenyl-2,3-dihydro-1H-pyrazol-4-yl)methyleneamino)-3-(p-methoxyphenylamino)-1H-pyrazole-4-carboxamide]
melting point: 274 to 276 °C
zone of inhibition at 500 µg/mL (Candida albicans [1]; [27]): 22 ± 0.35 mm
zone of inhibition at 500 µg/mL (Fusarium oxysporum [2]; [28]): 13 ± 0.3 mm
zone of inhibition at 500 µg/mL (Salmonella typhi [3]): 18 ± 0.16 mm
zone of inhibition at 500 µg/mL (Staphylococcus aureus [4]; [29]): 25 ± 0.31 mm
zone of inhibition at 500 µg/mL (Escherichia coli [5]; [30]): 24 ± 0.2 mm
zone of inhibition at 500 µg/mL (Pseudomonas aeruginosa [6]; [31]): 20 ± 0.15 mm
zone of inhibition at 500 µg/mL (Bacillus subtilis [7]; [32]): 21 ± 0.4 mm
zone of inhibition at 500 µg/mL (Enterococcus faecalis [8]; [33]): 21 ± 0.11 mm
